Converted amounts (≈) assume the structure as drawn.
Tests used:
noradrenaline = conditions: cited from earlier work
serotonin = conditions: cited from earlier work
dopamine = conditions: cited from earlier work
physchem = conditions: water, aqueous solubility

Structure (SMILES)	inhibition of the capture of noradrenaline (noradrenaline)	inhibition of the capture of serotonin (serotonin)	effect on dopamine (dopamine)	bioavailability (in vivo)	half-life (in vivo)	solubility (physchem)	activity of isomeric forms (activity of the isomers)
CCN(CC)C(=O)C1(c2ccccc2)CC1CN (stereo not shown) [Milnacipran]	mixed inhibition	mixed inhibition	no effect	> 85%	7 to 9 h	800 mg/mL (≈ 3250 mM)	
CCN(CC)C(=O)[C@@]1(c2ccccc2)C[C@H]1CN [dextrorotatory form]							more active than the levorotatory form

Source: patent US6699506B1, “Pharmaceutical composition with extended release of Milnacipran” (Pierre Fabre Medicament, priority 1996, dated 2004)
